# Measurements: patent publication US8192962B2, “Processes for detecting toxic substances” (Daikin Industries, Ltd., priority 2001, dated 2012)
# Test system: Metabolism protein genes
# Assay: DNA chip mRNA expression in yeast, metabolism protein genes (Table 7)
# Assay type: cell-based, Saccharomyces cerevisiae S288C
# Protocol: Yeast (Saccharomyces cerevisiae S288C (α SUC2mal mel gap2 CUP1)) were incubated at 25° C. on YPD medium (yeast extract 1%, polypepton 2%, glucose 2%). One of toxic chemical substances was added to the cells at logarithmic growth phase, and the cells were further incubated for two hours. Cells were cultured without any chemical substance in the same condition, and were used as control. Concentrations of the chemical substances were defined to inhibit the growth of the yeast but not lead to death.
# After completion of the incubation, the culture was centrifuged to collect the cells. To the cells, sodium acetate buffer (50 mM sodium acetate, 10 mM EDTA, 1% SDS) was added, and the mixture was shaken at 65° C. for five minutes, followed by returning to room temperature, and obtaining the supernatant, of which the procedures were repeated two times. To the supernatant, ½ amount of a solution of phenol/chloroform was added, and the mixture was centrifuged to give a supernatant, which was added with an equal amount of chloroform, and the mixture was centrifuged to give a supernatant. To the supernatant, an equal amount of isopropanol containing 0.3 M sodium acetate was added, and the mixture was allowed to stand at room temperature for 30 minutes, after which the mixture was centrifuged to give a sediment of the whole RNAs. Seventy % ethanol was added to the sediment, and the mixture was again centrifuged to give a sediment, which was then dried and dissolved in water. mRNA was isolated from the whole RNAs as followings. In view of the fact that a poly A chain is attached to the 3′ terminus of mRNA, a polynucleotide having a poly T structure which was immobilized on the surface of latex beads was used to trap the mRNA, and then the mRNA was washed and eluted with spine column (Oligotex-dT30<Super>mRNA Purification Kit, Takara). Reverse transcription of the mRNA was conducted with a reverse transcriptase (Super Script II Reverse Transcriptase; catalogue No. 18064-014, GibcoBRL) using fluorescence-labeled nucleotides to give cDNAs that were introduced with Cy3-dUTP or Cy5-dUTP during the reverse transcription.
# The labeled cDNAs were dissolved in TE buffer (10mM Tris-HCl/1 mM EDTA, pH8.0), and the solution was dropped on the DNA chip containing the whole genes of yeast (DNA Chip Research Inc. Japan) so that the cDNAs were hybridized on the DNA chip at 65° C. for over 12 hours. The fluoresces intensity of the DNA chip was read with a scanner, and the ratio relative to the fluorescence intensity resulting from the absence of chemical substance was estimated as the following, which is shown in Tables 1 to 9: […]
smiles,measurement,setting,value
"[Cl][Cd][Cl] [(2), CdCl2]",The level of expressed mRNA in the presence of chemical substance/The level of expressed mRNA in the absence of chemical substance,yeast gene YAL012W,6.5
same,The level of expressed mRNA in the presence of chemical substance/The level of expressed mRNA in the absence of chemical substance,yeast gene YAL038W,1.0
same,level of expressed mRNA in the presence/in the absence of chemical substance,yeast gene YBR003W,0.8
same,level of expressed mRNA in the presence/in the absence of chemical substance,yeast gene YBR011C,1.8
same,level of expressed mRNA in the presence/in the absence of chemical substance,yeast gene YBR020W,0.5
same,The level of expressed mRNA in the presence of chemical substance/The level of expressed mRNA in the absence of chemical substance,yeast gene YBR023C,0.8
same,The level of expressed mRNA in the presence of chemical substance/The level of expressed mRNA in the absence of chemical substance,yeast gene YBR029C,0.2
same,The level of expressed mRNA in the presence of chemical substance/The level of expressed mRNA in the absence of chemical substance,yeast gene YBR183W,1.5
same,The level of expressed mRNA in the presence of chemical substance/The level of expressed mRNA in the absence of chemical substance,yeast gene YBR222C,1.2
same,The level of expressed mRNA in the presence of chemical substance/The level of expressed mRNA in the absence of chemical substance,yeast gene YBR256C,1.4
same,The level of expressed mRNA in the presence of chemical substance/The level of expressed mRNA in the absence of chemical substance,yeast gene YCL009C,0.9
same,The level of expressed mRNA in the presence of chemical substance/The level of expressed mRNA in the absence of chemical substance,yeast gene YCL064C,0.6
same,level of expressed mRNA in the presence/in the absence of chemical substance,yeast gene YCR010C,1.6
same,level of expressed mRNA in the presence/in the absence of chemical substance,yeast gene YCR034W,0.4
same,The level of expressed mRNA in the presence of chemical substance/The level of expressed mRNA in the absence of chemical substance,yeast gene YCR048W,1.1
same,The level of expressed mRNA in the presence of chemical substance/The level of expressed mRNA in the absence of chemical substance,yeast gene YCR098C,3.0
same,The level of expressed mRNA in the presence of chemical substance/The level of expressed mRNA in the absence of chemical substance,yeast gene YDR019C,0.5
same,level of expressed mRNA in the presence/in the absence of chemical substance,yeast gene YDR050C,1.3
same,level of expressed mRNA in the presence/in the absence of chemical substance,yeast gene YDR073W,0.9
same,level of expressed mRNA in the presence/in the absence of chemical substance,yeast gene YDR123C,0.8
same,level of expressed mRNA in the presence/in the absence of chemical substance,yeast gene YDR178W,2.0
same,level of expressed mRNA in the presence/in the absence of chemical substance,yeast gene YDR277C,1.2
same,level of expressed mRNA in the presence/in the absence of chemical substance,yeast gene YDR284C,1.5
same,level of expressed mRNA in the presence/in the absence of chemical substance,yeast gene YDR345C,0.9
same,The level of expressed mRNA in the presence of chemical substance/The level of expressed mRNA in the absence of chemical substance,yeast gene YDR380W,0.8
same,level of expressed mRNA in the presence/in the absence of chemical substance,yeast gene YDR400W,2.0
same,level of expressed mRNA in the presence/in the absence of chemical substance,yeast gene YDR408C,1.0
same,level of expressed mRNA in the presence/in the absence of chemical substance,yeast gene YDR483W,1.0
same,The level of expressed mRNA in the presence of chemical substance/The level of expressed mRNA in the absence of chemical substance,yeast gene YDR497C,0.5
same,The level of expressed mRNA in the presence of chemical substance/The level of expressed mRNA in the absence of chemical substance,yeast gene YDR502C,2.8
same,The level of expressed mRNA in the presence of chemical substance/The level of expressed mRNA in the absence of chemical substance,yeast gene YDR516C,1.5
same,level of expressed mRNA in the presence/in the absence of chemical substance,yeast gene YEL063C,0.8
same,level of expressed mRNA in the presence/in the absence of chemical substance,yeast gene YER015W,0.9
same,The level of expressed mRNA in the presence of chemical substance/The level of expressed mRNA in the absence of chemical substance,yeast gene YER026C,0.6
same,The level of expressed mRNA in the presence of chemical substance/The level of expressed mRNA in the absence of chemical substance,yeast gene YER053C,1.8
same,The level of expressed mRNA in the presence of chemical substance/The level of expressed mRNA in the absence of chemical substance,yeast gene YER069W,0.8
same,level of expressed mRNA in the presence/in the absence of chemical substance,yeast gene YER081W,1.9
same,The level of expressed mRNA in the presence of chemical substance/The level of expressed mRNA in the absence of chemical substance,yeast gene YER096W,2.3
same,level of expressed mRNA in the presence/in the absence of chemical substance,yeast gene YER120W,1.1
same,The level of expressed mRNA in the presence of chemical substance/The level of expressed mRNA in the absence of chemical substance,yeast gene YER178W,0.9
same,level of expressed mRNA in the presence/in the absence of chemical substance,yeast gene YFL011W,0.7
same,The level of expressed mRNA in the presence of chemical substance/The level of expressed mRNA in the absence of chemical substance,yeast gene YFL014W,7.2
same,The level of expressed mRNA in the presence of chemical substance/The level of expressed mRNA in the absence of chemical substance,yeast gene YFL030W,6.0
same,The level of expressed mRNA in the presence of chemical substance/The level of expressed mRNA in the absence of chemical substance,yeast gene YFL031W,1.3
same,The level of expressed mRNA in the presence of chemical substance/The level of expressed mRNA in the absence of chemical substance,yeast gene YFL056C,2.3
same,The level of expressed mRNA in the presence of chemical substance/The level of expressed mRNA in the absence of chemical substance,yeast gene YFL057C,5.8
same,The level of expressed mRNA in the presence of chemical substance/The level of expressed mRNA in the absence of chemical substance,yeast gene YFR047C,4.0
same,level of expressed mRNA in the presence/in the absence of chemical substance,yeast gene YGL012W,0.8
same,The level of expressed mRNA in the presence of chemical substance/The level of expressed mRNA in the absence of chemical substance,yeast gene YGL022W,0.8
same,level of expressed mRNA in the presence/in the absence of chemical substance,yeast gene YGL115W,0.6
same,The level of expressed mRNA in the presence of chemical substance/The level of expressed mRNA in the absence of chemical substance,yeast gene YGL126W,1.3
same,level of expressed mRNA in the presence/in the absence of chemical substance,yeast gene YGL205W,0.9
same,The level of expressed mRNA in the presence of chemical substance/The level of expressed mRNA in the absence of chemical substance,yeast gene YGL209W,1.6
same,The level of expressed mRNA in the presence of chemical substance/The level of expressed mRNA in the absence of chemical substance,yeast gene YGL248W,1.3
same,The level of expressed mRNA in the presence of chemical substance/The level of expressed mRNA in the absence of chemical substance,yeast gene YGR037C,1.2
same,The level of expressed mRNA in the presence of chemical substance/The level of expressed mRNA in the absence of chemical substance,yeast gene YGR055W,5.7
same,level of expressed mRNA in the presence/in the absence of chemical substance,yeast gene YGR096W,1.0
same,level of expressed mRNA in the presence/in the absence of chemical substance,yeast gene YGR191W,0.7
same,The level of expressed mRNA in the presence of chemical substance/The level of expressed mRNA in the absence of chemical substance,yeast gene YGR194C,1.0
same,level of expressed mRNA in the presence/in the absence of chemical substance,yeast gene YGR204W,1.1
same,The level of expressed mRNA in the presence of chemical substance/The level of expressed mRNA in the absence of chemical substance,yeast gene YGR256W,1.5
same,The level of expressed mRNA in the presence of chemical substance/The level of expressed mRNA in the absence of chemical substance,yeast gene YGR282C,0.7
same,level of expressed mRNA in the presence/in the absence of chemical substance,yeast gene YGR288W,0.5
same,level of expressed mRNA in the presence/in the absence of chemical substance,yeast gene YHR025W,0.8
same,The level of expressed mRNA in the presence of chemical substance/The level of expressed mRNA in the absence of chemical substance,yeast gene YHR111W,1.3
same,level of expressed mRNA in the presence/in the absence of chemical substance,yeast gene YHR123W,1.2
same,The level of expressed mRNA in the presence of chemical substance/The level of expressed mRNA in the absence of chemical substance,yeast gene YHR137W,1.0
same,The level of expressed mRNA in the presence of chemical substance/The level of expressed mRNA in the absence of chemical substance,yeast gene YHR174W,1.4
same,The level of expressed mRNA in the presence of chemical substance/The level of expressed mRNA in the absence of chemical substance,yeast gene YHR176W,2.0
same,level of expressed mRNA in the presence/in the absence of chemical substance,yeast gene YHR210C,1.0
same,level of expressed mRNA in the presence/in the absence of chemical substance,yeast gene YIL006W,1.1
same,The level of expressed mRNA in the presence of chemical substance/The level of expressed mRNA in the absence of chemical substance,yeast gene YIL045W,1.4
same,The level of expressed mRNA in the presence of chemical substance/The level of expressed mRNA in the absence of chemical substance,yeast gene YIL107C,0.8
same,The level of expressed mRNA in the presence of chemical substance/The level of expressed mRNA in the absence of chemical substance,yeast gene YIL154C,1.3
same,The level of expressed mRNA in the presence of chemical substance/The level of expressed mRNA in the absence of chemical substance,yeast gene YIL155C,0.7
same,The level of expressed mRNA in the presence of chemical substance/The level of expressed mRNA in the absence of chemical substance,yeast gene YIR034C,1.1
same,The level of expressed mRNA in the presence of chemical substance/The level of expressed mRNA in the absence of chemical substance,yeast gene YIR036C,1.7
same,The level of expressed mRNA in the presence of chemical substance/The level of expressed mRNA in the absence of chemical substance,yeast gene YJL031C,1.2
same,The level of expressed mRNA in the presence of chemical substance/The level of expressed mRNA in the absence of chemical substance,yeast gene YJL068C,2.7
same,The level of expressed mRNA in the presence of chemical substance/The level of expressed mRNA in the absence of chemical substance,yeast gene YJL088W,0.8
same,The level of expressed mRNA in the presence of chemical substance/The level of expressed mRNA in the absence of chemical substance,yeast gene YJL099W,1.2
same,level of expressed mRNA in the presence/in the absence of chemical substance,yeast gene YJL121C,0.5
same,level of expressed mRNA in the presence/in the absence of chemical substance,yeast gene YJL167W,1.4
same,The level of expressed mRNA in the presence of chemical substance/The level of expressed mRNA in the absence of chemical substance,yeast gene YJL172W,2.1
same,level of expressed mRNA in the presence/in the absence of chemical substance,yeast gene YJL216C,4.7
same,The level of expressed mRNA in the presence of chemical substance/The level of expressed mRNA in the absence of chemical substance,yeast gene YJL219W,2.5
same,level of expressed mRNA in the presence/in the absence of chemical substance,yeast gene YJR077C,1.1
same,The level of expressed mRNA in the presence of chemical substance/The level of expressed mRNA in the absence of chemical substance,yeast gene YJR137C,2.9
same,level of expressed mRNA in the presence/in the absence of chemical substance,yeast gene YJR143C,0.6
same,The level of expressed mRNA in the presence of chemical substance/The level of expressed mRNA in the absence of chemical substance,yeast gene YJR148W,1.4
